Entries after “also recorded” stand apart in the source; their conditions may differ.
Assays:
CYP4A11 mRNA = assay: RT-PCR of CYP4A11 mRNA in U251 cultures; format: cell-based, human; settings: 100 μM DDMS
Method: EtOH-treated cultures were used as solvent controls. Briefly, total RNA was isolated with Trizol reagent (Invitrogen) and 1-2 μg RNA was used to synthesize cDNA using a First Strand synthesis kit (Invitrogen). We used PCR primers that specifically recognize CYP4A11, and β-actin-specific primers. A 1 μCi ^32P per sample was added to Platinum PCR Supermix (Invitrogen). The PCR conditions used to amplify CYP4A 11 and β-actin consisted of a precycle of 95° C for 3 min followed by 35 cycles of 95° C for 45 s, 52° C. for 30 s, and 72° C. for 2 min, with final extension at 72° C. for 10 min. The primers used were: β-actin forward primer, 5′-TGCGTGACATTAAGGAGAAG-3′ (SEQ ID NO:3); β-actin reverse primer, 5′-GCT CGT AGC TCT TCT CCA-3′ (SEQ ID NO:4); CYP4A11 forward primer, 5′-CCACCTGGACCAGAGGCCCTACACCACC-3′ (SEQ ID NO:5); CYP4A11 reverse primer, 5′-AGGATATGGGCAGACAGGAA-3′(SEQ ID NO:6). PCR products were subjected to electrophoresis in 5% bis-acrylamide gels and visualized by autoradiography.

HUVECs = assay: Proliferation of normal HUVECs (comparison with U251); format: cell-based, human; settings: 10 μM HET0016, 48 hrs; DDMS concentration not given
Method: (§1) Mean values±SD from three separate experiments, each performed in triplicate, are presented. *** indicates p<0.001 from the respective control values.
(§2) Cell Proliferation Assays: Proliferation studies were performed with cultures plated at a density that ensured exponential growth for at least 5 days. Growth medium was generally replaced by serum-free medium 24 hr after plating. Cells were treated with various concentrations of a given compounds for 24 or 48 hr as described in the Methods. […] Organic solvent never exceeded 0.1% of total culture volume. Cells were harvested by exposure to 0.05% trypsin/EDTA and counted using a hemocytometer.

U251 human glioma cells = assay: U251 cell proliferation assay (cell counting); format: cell-based
Method: Culture Conditions: Cells were routinely maintained in DMEM (Invitrogen) supplemented with 10% heat-inactivated fetal bovine serum (FBS), penicillin (10 IU/ml), streptomycin (10 μg/ml) and 10% non-essential amino acids (all purchased from Invitrogen). Cells were maintained at 37° C. in a humidified incubator containing 5% CO2. They were grown in medium containing 10% FBS, which was then replaced with serum-free medium where U251 cells grow exponentially. Treatments were initiated one day after serum removal.
as §2

rat cornea = assay: Rat cornea pocket angiogenesis assay (growth factor pellets); format: in vivo
Method: (i) Preparation of sustained-release polymer: Sustained-release polymer pellets were prepared by making a 1:1 mix of a 12% solution in ethanol of the polymer (Hydron polyhydroxyethylmethacrylate), with saline containing the growth factors. The growth factors bFGF, VEGF, and EGF were dissolved at a concentration of 125 ng/μl. […] 2 μl of these solutions were added to each pellet. Thus, a pellet containing 250 ng of a single growth factor was implanted at random in the right or left eye. The other eye was implanted with a pellet containing the same dose of growth factor+HET0016. In some rats the pellet contained VEGF alone and VEGF+DDMS. 20 μg of the stable 20-HETE agonist analog WIT003 was implanted in one eye to determine whether it induces angiogenesis. […] 9 μl of the 1:1 Hydron/treatment mixture was placed on the ends of 1.5-cm rods. Each pellet contained 250 ng of its respective growth factor. For bFGF we used sucralfate to stabilize and allow sustained release of this growth factor (Volkin D B et al., Biochim Biophys Acta 1993, 1203:18-26). After drying the pellets for 1 hour, they were ready to be implanted into the cornea of rats.
(ii) Pellet implantation: The rats were anesthetized IM with ketamine (80 mg/kg) and xylazine (10 mg/kg). The eyes were topically anesthetized with 0.5% proparacaine (Ophthetic, Alcon, Tex.) and the globes proptosed with a jeweler's forceps. Using an operating microscope, a central intrastromal linear keratotomy, approximately 1.5 mm in length, was performed with a surgical blade (Bard-Parker #11; Becton Dickinson, Franklin Lake, N.Y.) parallel to the insertion of the lateral rectus muscle. A curved iris spatula (No. 10093-13, Fine Science Tools, Belmont, Calif.) approximately 1.5 mm wide and 5 mm long was inserted under the lip of the incision and gently pushed through the stroma toward the temporal limbus of the eye. The distance between the limbus and the base of the pocket was kept at 1.0±0.1 mm. The pellet was advanced to the temporal end of the pocket. Antibiotic ointment (erythromycin) was applied to the anterior surface of the eye.
(iv) Quantitation of corneal neovascularization: Seven days after pellet implantation, the rats were deeply anesthetized as previously described with ketamine and xylazine. The left ventricle was cannulated and the animal was perfused with 20-25 ml saline through the left ventricle followed by 20-25 ml India ink (waterproof drawing ink, Sanford, Bellwood, Ill.). The eyes were marked for orientation, enucleated and placed in 4% formalin for 24 hours. The cornea was dissected free from the surrounding globe and underlying iris, bisected, and loosely mounted between two glass slides, thus gently flattening the cornea. These flat mounts were examined microscopically using a Nikon Diaphot Epi-fluor 2 microscope attached to a CCD video camera and the images were digitized and saved using a computer.
Neovascularization was determined by comparing total vessel length in the control and experimental eyes. Vessel length was determined by tracing each vessel from the limbus to the pellet. Total length is the sum of these values in pixels and was determined using conventional image analysis software (Sigma Scan Pro, SPSS, Chicago, Ill.)

[1] = test system: primary human keratinocytes; assay: Proliferation of primary human keratinocytes (comparison with U251); format: cell-based; settings: 10 μM HET0016, 48 hrs; DDMS concentration not given
Method: as §1, §2

9L rat gliosarcoma cells = assay: 9L cell proliferation assay (cell counting); format: cell-based
Method: Culture Conditions: 9L rat gliosarcoma cells were purchased from ATC (Gaithersburg, Md.) and were maintained in DMEM (Invitrogen) supplemented with 10% heat-inactivated fetal bovine serum (FBS), penicillin (10 IU/ml), streptomycin (10 μg/ml) and 10% non-essential amino acids (all purchased from Invitrogen). Cells were maintained at 37° C. in a humidified incubator containing 5% CO2. They were grown in medium containing 10% FBS, which was then replaced with serum-free medium (give type and source) where 9L cells grow exponentially.
Cell Proliferation Assays: Proliferation studies were performed with cultures plated at a density that ensured exponential growth for at least 5 days. Growth medium were generally replaced by serum free medium 24 hr after plating. […] The concentration of the ethanol added to the media never exceeded 0.1%. Cells were harvested by exposure to a solution of 0.05% Trypsin/EDTA and counted using a hemocytometer.

CYP4A = settings: read-out: IC50 for inhibition of CYP4A enzyme activity; cited from earlier work

CS(=O)(=O)NC(=O)CCCCCCCCCC=C(Br)Br [DDMS, dibromododecenyl methylsulfonimide]
CYP4A11 transcript levels (CYP4A11 mRNA): not affected
effect on basal growth or proliferation of normal HUVECs (HUVECs): Neither DDMS or HET0016 had any effect
blockade of U251 cell proliferation (U251 human glioma cells; DDMS, concentration not given): about 60%
concentration dependence of inhibition of U251 proliferation (U251 human glioma cells; various concentrations): inhibited the proliferation of U251 cancer cells in a dose-dependent manner; also recorded: inhibited the proliferation of U251 cells in a concentration dependent manner
angiogenic response to inhibitor alone (rat cornea; 20 μg HET0016 or 10 μg DDMS per pellet, no growth factor): Neither HET0016 nor DDMS alone elicited a response different from saline
effect on the angiogenic response to VEGF (rat cornea; VEGF 250 ng/pellet + 10 μg DDMS): as effective as 20 μg HET0016; also recorded: completely inhibits the angiogenic response; also recorded: abolished; also recorded: inhibit angiogenic responses to VEGF
effect on basal growth or proliferation of primary human keratinocytes [1]: Neither DDMS or HET0016 had any effect
effect on 9L cell number (9L rat gliosarcoma cells; DDMS 10 μM): significant reduction in cell number
inhibition of 9L cell proliferation (9L rat gliosarcoma cells; DDMS, concentration not given): 60%
IC50 (CYP4A): ~10 µM

Source: patent publication US20050124618A1, “Methods of modulating angiogenesis and cancer cell proliferation” (priority 2003, published 2005)
